Publication PMC11642889, “Structure-Based Screening and Optimization of PafA Inhibitors with Potent Anti-Tuberculosis Activity” (International Journal of Molecular Sciences, 2024)

Molecular target: Mtb PafA (Mycobacterium tuberculosis, UniProt P9WNU7)
Test: fluorescent pupylation assay of PanB with 5-carboxyfluorescein-cys-Pup^E
Assay type: biochemical

Sequence of Mtb PafA (P9WNU7 whole entry, looked up): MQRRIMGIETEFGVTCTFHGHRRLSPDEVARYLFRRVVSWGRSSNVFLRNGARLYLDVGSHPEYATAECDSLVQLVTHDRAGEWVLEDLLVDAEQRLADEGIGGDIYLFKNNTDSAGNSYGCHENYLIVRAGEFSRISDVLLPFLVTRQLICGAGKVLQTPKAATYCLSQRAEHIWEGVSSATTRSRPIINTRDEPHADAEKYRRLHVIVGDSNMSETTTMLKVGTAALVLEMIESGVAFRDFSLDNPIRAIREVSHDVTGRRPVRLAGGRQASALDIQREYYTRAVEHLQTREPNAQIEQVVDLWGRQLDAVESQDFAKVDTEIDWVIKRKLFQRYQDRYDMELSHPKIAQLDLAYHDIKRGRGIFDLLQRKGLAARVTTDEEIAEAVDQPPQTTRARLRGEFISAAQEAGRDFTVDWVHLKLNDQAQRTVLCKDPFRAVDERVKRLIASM

Compound: NS(=O)(=O)c1ccc(NC(=S)NCCc2ccc(F)cc2)cc1 [Pi-2-26]
- IC50: 46.2 ± 7.96 nM
